Molecular target: T1, PASK (UniProt #Q96RG2; human recombinant N-terminal GST tagged construct, residues 879-1323) (Homo sapiens, UniProt Q96RG2)
T1 construct: N-terminal GST tagged construct, residues 879-1323; GST (N); made in house; host or cells: insect cells
Experiment: 33P-ATP radiometric PASK kinase assay (P81 phosphocellulose, scintillation counting)
Format: biochemical
Settings: Table 2, Myelin Basic Protein 20 μM, 120 min room temperature, average of all trials, read-out: IC50 Kinase Domain
Experimental: Purified PASK (UniProt #Q96RG2; human recombinant N-terminal GST tagged construct, residues 879-1323) from insect cells (final concentration 5 nM) is added to freshly prepared Base Reaction Buffer containing 20 mM Hepes (pH 7.5), 10 mM MgCl2, 1 mM EGTA, 0.02% Brij35, 0.02 mg/ml BSA, 0.1 mM Na3VO4, 2 mM DTT, 1% DMSO and Myelin Basic Protein (20 μM final). Test compounds in DMSO are then added and the mixture, followed by delivery of ^33P-ATP (specific activity 0.01 μCi/μl final) to initiate the reaction. The kinase reaction is incubated for 120 min at room temperature. The entire reaction mixture is washed through onto a P81 Phosphocellulose paper and washed three times for 10 minutes in 75 mM phosphoric acid and once in methanol prior to drying and scintillation counting. When the assay was repeated for a given compound, the activity data is based on the average of all trials.

T1 sequence (Q96RG2 879-1323, stated change not applied): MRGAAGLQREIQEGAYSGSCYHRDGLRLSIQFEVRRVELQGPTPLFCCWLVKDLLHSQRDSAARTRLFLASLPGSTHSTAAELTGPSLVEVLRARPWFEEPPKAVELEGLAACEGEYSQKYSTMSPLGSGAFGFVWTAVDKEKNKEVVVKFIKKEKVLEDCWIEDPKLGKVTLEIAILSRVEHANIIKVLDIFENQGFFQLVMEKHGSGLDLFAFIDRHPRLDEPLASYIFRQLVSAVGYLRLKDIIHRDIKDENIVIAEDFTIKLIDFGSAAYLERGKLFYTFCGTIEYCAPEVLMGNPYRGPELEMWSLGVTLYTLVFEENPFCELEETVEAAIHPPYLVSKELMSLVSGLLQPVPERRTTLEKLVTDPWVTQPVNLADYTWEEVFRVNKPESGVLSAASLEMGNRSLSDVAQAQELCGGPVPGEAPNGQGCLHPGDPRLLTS

| IC50 [µM] | SMILES |
| --- | --- |
| ≥ 10 | O=C(O)c1ccc2nc(-c3ccccc3)c(-c3ccccc3-c3ccccc3)nc2c1 [Example 24, 3-(Biphenyl-2-yl)-2-phenylquinoxaline-6-carboxylic acid] |
| ≤ 10 | COc1ccc(-c2nc3cc(C(=O)O)ccc3nc2-c2ccccc2)cc1OC [Example 17, 3-(3,4-Dimethoxyphenyl)-2-phenylquinoxaline-6-carboxylic acid] |
| ≥ 10 | O=C(O)c1cc2nc(-c3cccc(O)c3)c(-c3cccc(O)c3)nc2cc1O [Example 29, 7-Hydroxy-2,3-bis(3-hydroxyphenyl)quinoxaline-6-carboxylic acid] |
| ≥ 10 | O=C(O)c1ccc(-c2nc3cc(C(=O)O)ccc3nc2-c2ccccc2)cc1 [Example 35, 3-(4-Carboxyphenyl)-2-phenylquinoxaline-6-carboxylic acid] |
| ≤ 10 | O=C(O)c1ccc2nc(-c3ccccc3)c(-c3ccsc3)nc2c1 [Example 43, 2-Phenyl-3-(thiophen-3-yl)quinoxaline-6-carboxylic acid] |
| ≤ 10 | O=C(O)c1ccc2nc(-c3ccco3)c(-c3ccccc3)nc2c1 [Example 12, 2-(Furan-2-yl)-3-phenylquinoxaline-6-carboxylic acid] |
| ≤ 10 | O=C(O)c1ccc2nc(-c3ccccc3)c(-c3cccc(OC(F)(F)F)c3)nc2c1 [Example 37, 2-Phenyl-3-(3-(trifluoromethoxy)phenyl)quinoxaline-6-carboxylic acid] |
| ≤ 10 | Cc1ccc(-c2nc3cc(C(=O)O)ccc3nc2-c2ccccc2)cc1 [Example 15, 2-Phenyl-3-p-tolylquinoxaline-6-carboxylic acid] |
| ≤ 10 | O=C(O)c1ccc2nc(-c3ccccc3)c(-c3cccc(O)c3)nc2c1 [Example 46, 3-(3-Hydroxyphenyl)-2-phenylquinoxaline-6-carboxylic acid] |
| ≤ 10 | N#Cc1ccc(-c2nc3cc(C(=O)O)ccc3nc2-c2ccccc2)cc1 [Example 22, 3-(4-Cyanophenyl)-2-phenylquinoxaline-6-carboxylic acid] |
| ≤ 10 | O=C(O)c1cc2nc(-c3ccc(O)cc3)c(-c3ccc(O)cc3)nc2cc1O [Example 28, 7-Hydroxy-2,3-bis(4-hydroxyphenyl)quinoxaline-6-carboxylic acid] |
| ≤ 10 | O=C(O)c1ccc2nc(-c3ccccc3)c(-c3cccc4ccccc34)nc2c1 [Example 19, 3-(Naphthalene-1-yl)-2-phenylquinoxaline-6-carboxylic acid] |
| ≥ 10 | Cc1nc2cc(C(=O)O)ccc2nc1-c1ccccc1 [Example 14, 3-Methyl-2-phenylquinoxaline-6-carboxylic acid] |
| ≤ 10 | O=C(O)c1ccc2nc(-c3ccccc3)c(-c3ccc(Cl)cc3)nc2c1 [Example 30, 3-(4-Chlorophenyl)-2-phenylquinoxaline-6-carboxylic acid] |
| ≤ 10 | O=C(O)c1ccc2nc(-c3ccccc3)c(-c3ccoc3)nc2c1 [Example 42, 3-(Furan-3-yl)-2-phenylquinoxaline-6-carboxylic acid] |
| ≤ 10 | Cc1ccccc1-c1nc2cc(C(=O)O)ccc2nc1-c1ccccc1 [Example 39, 2-Phenyl-3-o-tolylquinoxaline-6-carboxylic acid] |
| ≥ 10 | CCc1nc2cc(C(=O)O)ccc2nc1-c1ccccc1 [Example 48, 3-Ethyl-2-phenylquinoxaline-6-carboxylic acid] |
| ≤ 10 | O=C(O)c1ccc2nc(-c3ccccc3)c(-c3ccncc3)nc2c1 [Example 21, 2-Phenyl-3-(pyridin-4-yl)quinoxaline-6-carboxylic acid] |

| IC50 [µM] | SMILES |
| --- | --- |
| ≤ 10 | O=C(O)c1ccc2nc(-c3ccccc3)c(-c3cccc(F)c3)nc2c1 [Example 38, 3-(3-Fluorophenyl)-2-phenylquinoxaline-6-carboxylic acid] |
| ≤ 10 | O=C(O)c1ccc2nc(-c3ccccc3)c(-c3ccc(OC(F)(F)F)cc3)nc2c1 [Example 36, 2-Phenyl-3-(4-(trifluoromethoxy)phenyl)quinoxaline-6-carboxylic acid] |
| ≥ 10 | O=C(O)c1cc2nc(-c3ccc(Cl)cc3)c(-c3ccc(Cl)cc3)nc2cc1O [Example 26, 2,3-Bis(4-chlorophenyl)-7-hydroxyquinoxaline-6-carboxylic acid] |
| ≤ 10 | CCOc1ccc(-c2nc3cc(C(=O)O)ccc3nc2-c2ccccc2)cc1 [Example 16, 3-(4-Ethoxyphenyl)-2-phenylquinoxaline-6-carboxylic acid] |
| ≤ 10 | O=C(O)c1ccc2nc(-c3ccccc3)c(-c3ccc(O)cc3)nc2c1 [Example 44, 3-(4-Hydroxyphenyl)-2-phenylquinoxaline-6-carboxylic acid] |
| ≤ 10 | O=C(O)c1ccc2nc(-c3ccccc3)c(-c3ccc4ccccc4c3)nc2c1 [Example 18, 3-(Naphthalen-2-yl)-2-phenylquinoxaline-6-carboxylic acid] |
| ≤ 10 | O=C(O)c1ccc2nc(-c3ccccc3)c(-c3ccc(Br)cc3)nc2c1 [Example 31, 3-(4-Bromophenyl)-2-phenylquinoxaline-6-carboxylic acid] |
| ≤ 10 | O=C(O)c1ccc2nc(-c3ccccc3)c(-c3ccc(-c4ccccc4)cc3)nc2c1 [Example 47, 2-Phenyl-3-(4-phenyl-phenyl)quinoxaline-6-carboxylic acid] |
| ≤ 10 | COc1ccc(-c2nc3cc(O)c(C(=O)O)cc3nc2-c2ccc(OC)cc2)cc1 [Example 27, 7-Hydroxy-2,3-bis(4-methoxyphenyl)quinoxaline-6-carboxylic acid] |
| ≤ 10 | CCc1ccc(-c2nc3cc(C(=O)O)ccc3nc2-c2ccccc2)cc1 [Example 32, 3-(4-Ethylphenyl)-2-phenylquinoxaline-6-carboxylic acid] |
| ≤ 10 | O=C(O)c1ccc2nc(-c3ccccc3)c(-c3ccc(CO)cc3)nc2c1 [Example 34, 3-(4-(Hydroxymethyl)phenyl)-2-phenylquinoxaline-6-carboxylic acid] |
| ≤ 10 | O=C(O)c1ccc2nc(-c3ccccc3)c(-c3ccc(C(F)(F)F)cc3)nc2c1 [Example 13, 2-Phenyl-3-(4-(trifluoromethyl)phenyl)quinoxaline-6-carboxylic acid] |
| ≤ 10 | COc1ccc(-c2nc3cc(C(=O)O)ccc3nc2-c2ccccc2)c(OC)c1 [Example 45, 3-(2,4-Dimethoxyphenyl)-2-phenylquinoxaline-6-carboxylic acid] |
| ≤ 10 | O=C(O)c1ccc2nc(-c3ccccc3)c(-c3ccc4c(c3)OCO4)nc2c1 [Example 20, 3-(Benzo[d][1,3]dioxol-5-yl)-2-phenylquinoxaline-6-carboxylic acid] |
| ≤ 10 | COc1ccc(-c2nc3cc(C(=O)O)ccc3nc2-c2ccccc2)cc1 [Example 23, 3-(4-Methoxyphenyl)-2-phenylquinoxaline-6-carboxylic acid] |
| ≤ 10 | Cc1cccc(-c2nc3cc(C(=O)O)ccc3nc2-c2ccccc2)c1 [Example 40, 2-Phenyl-3-m-tolylquinoxaline-6-carboxylic acid] |
| ≤ 10 | O=C(O)c1ccc2nc(-c3ccccc3)c(-c3ccc([N+](=O)[O-])cc3)nc2c1 [Example 41, 3-(4-Nitrophenyl)-2-phenylquinoxaline-6-carboxylic acid] |
| ≤ 10 | O=C(O)c1cc2nc(-c3ccc(F)cc3)c(-c3ccc(F)cc3)nc2cc1O [Example 25, 2,3-Bis(4-fluorophenyl)-7-hydroxyquinoxaline-6-carboxylic acid] |

Molecular target: T2, hPASK Kinase Domain (Homo sapiens, UniProt Q96RG2)
T2 construct: made in house; host or cells: insect cells
T2 sequence (Q96RG2 999-1251 limits assumed): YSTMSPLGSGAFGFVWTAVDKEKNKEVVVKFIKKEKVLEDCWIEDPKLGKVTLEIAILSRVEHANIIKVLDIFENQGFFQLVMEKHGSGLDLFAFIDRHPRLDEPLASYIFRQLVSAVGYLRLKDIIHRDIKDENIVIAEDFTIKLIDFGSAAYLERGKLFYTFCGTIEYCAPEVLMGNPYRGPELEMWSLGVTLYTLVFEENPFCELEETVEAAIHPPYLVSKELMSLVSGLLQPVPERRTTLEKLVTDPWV
Experiment: Biochemical Assay for hPASK Activity (Kinase-Glo Luminescent Kinase Assay), kinase domain
Settings: Table 1, second part (Examples 33-59)
Experimental: The assay for purified hPASK activity utilizes the Kinase-Glo Luminescent Kinase Assay (Promega), which quantifies the amount of ATP remaining in solution following kinase reaction. The assay is carried out in a 96-well plate format and is performed by adding a volume of Kinase-Glo Reagent (Promega, catalog #V3771) equal to the volume of solution in the well of a completed kinase reaction. Kinase-Glo reagent contains Luciferase and its substrate. After addition to a kinase reaction it allows to measure luminescence. The amount of ATP left in solution at the time of Kinase-Glo Plus addition is directly proportional to the luminescence that is measured in each well, and inversely correlated with kinase activity.
Purified hPASK from insect cells (0.02 μg) is added to a 50 μL reaction mix containing 40 mM Hepes (pH 7.0), 100 mM KCl, 5 mM MgCl2, 1 mM DTT and 1 ug of MBP protein. Inhibitory compounds are then added and the mixture is incubated for 10 min at 25° C. before adding 5 μL of ATP (at desired concentration). The reaction is allowed to proceed at 25° C. for 1 hour before adding 50 μL of Kinase-Glo reagent. The luminescence is measured as soon as 10 minutes after Kinase-Glo reagent is added.

| IC50 [µM] | SMILES |
| --- | --- |
| ≥ 10 | COc1ccc(-c2nc3ccc(/C=C/C(=O)O)cc3nc2-c2ccc(OC)cc2)cc1 [Example 56, (E)-3-(2,3-bis(4-methoxyphenyl)quinoxalin-6-yl)acrylic acid] |
| ≤ 10 | O=C(O)c1cccc(-c2nc3cc(C(=O)O)ccc3nc2-c2ccccc2)c1 [Example 50, 3-(3-Carboxyphenyl)-2-phenylquinoxaline-6-carboxylic acid] |
| ≤ 10 | CCc1ccc(-c2nc3ccc(C(=O)NOC)cc3nc2-c2ccc(CC)cc2)cc1 [Example 59, 2,3-Bis(4-ethylphenyl)-N-methoxyquinoxaline-6-carboxamide] |
| ≥ 10 | CNS(=O)(=O)c1ccc2nc(-c3ccc(OC)cc3)c(-c3ccc(OC)cc3)nc2c1 [Example 54, 2,3-Bis(4-methoxyphenyl)-N-methylquinoxaline-6-sulfonamide] |
| ≤ 10 | COc1ccc(-c2nc3ccc(S(N)(=O)=O)cc3nc2-c2ccc(OC)cc2)cc1 [Example 53, 2,3-Bis(4-methoxyphenyl)quinoxaline-6-sulfonamide] |

From US9370522B2, “Heterocyclic compounds for the inhibition of PASK” (BioEnergenix, LLC, priority 2009, dated 2016)
